# Reference: patent publication US12331302B2, “Fungal autoinducible expression system” (priority 2019, dated 2025)
# B1: Bar1: α-factor degrading protease (protein, UniProt P12630 25-587, looked up)
# Barrierpepsin: LTNDGTGHLEFLLQHEEEMYYATTLDIGTPSQSLTVLFDTGSADFWVMDSSNPFCLPNSNTSSYSNATYNGEEVKPSIDCRSMSTYNEHRSSTYQYLENGRFYITYADGTFADGSWGTETVSINGIDIPNIQFGVAKYATTPVSGVLGIGFPRRESVKGYEGAPNEYYPNFPQILKSEKIIDVVAYSLFLNSPDSGTGSIVFGAIDESKFSGDLFTFPMVNEYPTIVDAPATLAMTIQGLGAQNKSSCEHETFTTTKYPVLLDSGTSLLNAPKVIADKMASFVNASYSEEEGIYILDCPVSVGDVEYNFDFGDLQISVPLSSLILSPETEGSYCGFAVQPTNDSMVLGDVFLSSAYVVFDLDNYKISLAQANWNASEVSKKLVNIQTDGSISGAKIATAEPWSTNEPFTVTSDIYSSTGCKSRPFLQSSTASSLIAETNVQSRNCSTKMPGTRSTTVLSKPTQNSAMHQSTGAVTQTSNETKLELSSTMANSGSVSLPTSNSIDKEFEHSKSQTTSDPSVAEHSTFNQTFVHETKYRPTHKTVITETVTKYSTVLINVCKPTY
# Columns and labels:
# Format in all cases: cell-based, Saccharomyces cerevisiae
# FUS1 promoter (pFUS1) = assay: mCherry expression under control of pFUS1, with or without α-factor; conditions: after 24 h, culture with addition of 5 μM α-factor
# Description: (§1) Pre-cultures are prepared by inoculation of biological triplicates in CSM with appropriate amino acid drop out, and are grown for two days at 30° C., 250 rpm. Thereafter, they are inoculated to an OD of 0.05 in two duplicate tubes, whereof one is induced with 5 μM α-factor. Strains are grown at 30° C., 250 rpm for 24 h and samples are taken for flow cytometry after 0, 8 and 24 h. For characterization of strains with endogenous α-factor production, transformation plates and pre-culture media is supplemented with 5 μg/mL doxycycline. The pre-cultures are washed to remove Bar1 and doxycycline prior to inoculation. OD is measured at 600 nm and GFP and mCherry production is measured with a BD Accuri™ C6 flow cytometer from Becton, Dickinson and Company (Franklin Lakes, NJ, USA).
# (§2) To test the initial system configuration, pFUS1-Cre and pTEF1-loxP-GFP-loxP-mCherry is transformed into strain JL275 (BY4741 MATa Δbar1 Δfar1). Precultures are grown for two days in CSM-ura-leu. Each replicate is used to inoculate two cultures, whereof one is induced with 5 μM α-factor. Fluorescence is measured after 0, 8 and 24 h. […] This indicated a high basal level expression from the FUS1 promoter, leading to leaky expression of Cre recombinase and early recombination. To investigate this hypothesis, mCherry is cloned under control of pFUS1 and mCherry expression is measured at 0 and 24 h. […]
# [1] = test system: Ste2 receptor / pFUS1J2-ubiM-Cre circuit in strain JL275; assay: Strain characterization: GFP and mCherry production by flow cytometry after α-factor induction of the Cre/loxP circuit; conditions: JL275 with pFUS1J2-ubiM-Cre and pTEF1-loxP-GFP-loxP-mCherry
# Description: as §1, §2
# strains JL277-JL280 = assay: Autoinducible strains with endogenous α-factor production, fluorescence by TECAN plate reader; conditions: JL277-280 with pFUS1J2-ubiM-Cre pTDH3-rtTA pTETO3-BAR1 and pTEF1-loxP-GFP-loxP-mCherry; with or without 5 μM α-factor
# Description: To establish autoinducible strains, the α-factor-expressing gene MFα1 under control of four different native promoters with different expression strengths (pTDH3, pPGK1, pYEF3 and pACT1) is integrated into locus p416d into the genome of JL275, resulting in strains JL277-JL280, respectively. The strains are transformed with plasmids pFUS1J2-ubiM-Cre pTDH3-rtTA pTETO3-BAR1 and pTEF1-loxP-GFP-loxP-mCherry, inoculated into CSM-ura-leu supplemented with 5 μg/mL doxycycline and pre-cultured for two days. The pre-cultures are washed and inoculated to an OD of 0.05, and grown with or without 5 μM α-factor to compare endogenous and external inducibility. The strain fluorescence is measured with a TECAN plate reader. […] The strain also continued to produce GFP unless α-factor is added. This experiment is to be repeated according to the previously established strain characterization protocol and measured with a flow cytometer.
# [2] = test system: pTETO3-BAR1 control module in strain JL275; assay: Functionality of doxycycline-inducible BAR1 expression (supernatant/α-factor mix); conditions: supernatant mixed with 600 μM α-factor, 30° C., 4 h
# Description: The functionality of Bar1 expression is investigated by transforming JL275 with pFUS1J2-ubiM-Cre pTDH3-rtTA pTETO3-BAR1 or control plasmid pFUS1-Cre. Both strains are inoculated in media with or without 5 μg/mL doxycycline, and are grown to stationary phase where after they are spun down. 0.5 mL supernatant is mixed with 0.5 mL 600 μM α-factor and incubated at 30° C. for 4 h. A corresponding amount of 5 μM α-factor (assuming no α-factor has been degraded) from each supernatant/α-factor incubation mix is used to induce cultures of JL275 with pFUS1J2-ubiM-Cre and pTEF1-loxP-GFP-loxP-mCherry (FIG. 4A). 0 and 5 μM α-factor are used as controls.
Molecule,mCherry expression from pFUS1 compared to the background strain autofluorescence (FUS1 promoter (pFUS1)),"System titratability (mCherry output) ([1]; 0, 0.1, 0.5, 1, 5 or 10 μM α-factor)","GFP to mCherry production shift ([1]; 5 μM α-factor, 0, 8 and 24 h)",mCherry production induction (strains JL277-JL280),Degradation of α-factor by supernatant [2]
α-factor,approximately 20 fold,mCherry output correlating to the amount of α-factor added,clear shift from GFP to mCherry production,barely induced unless α-factor is added,
B1,,,,,functional and degrades α-factor
